The values that follow come from paper PMC3827942, “A novel type of N-acetylglutamate synthase is involved in the first step of arginine biosynthesis in Corynebacterium glutamicum” (BMC Genomics, 2013).

The target of one experiment is T1, ArgA from E. coli (Escherichia coli, UniProt P0A6C5).
T1 construct: structural gene overexpressed from pZ8-1 in wild-type C. glutamicum ATCC 13032; crude extract
T1 sequence (P0A6C5 1-443): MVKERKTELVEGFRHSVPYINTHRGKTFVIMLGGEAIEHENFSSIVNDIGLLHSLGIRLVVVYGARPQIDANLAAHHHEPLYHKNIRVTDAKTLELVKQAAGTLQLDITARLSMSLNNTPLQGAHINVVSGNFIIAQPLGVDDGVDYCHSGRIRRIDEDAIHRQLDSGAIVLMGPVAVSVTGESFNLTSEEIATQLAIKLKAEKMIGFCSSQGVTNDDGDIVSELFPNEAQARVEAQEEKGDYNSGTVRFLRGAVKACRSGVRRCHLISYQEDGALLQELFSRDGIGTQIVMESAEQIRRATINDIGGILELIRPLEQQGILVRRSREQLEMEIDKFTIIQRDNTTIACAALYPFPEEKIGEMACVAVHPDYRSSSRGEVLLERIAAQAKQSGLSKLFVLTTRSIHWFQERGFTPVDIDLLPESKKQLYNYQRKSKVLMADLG
The experiment is described as follows: DTNB assay of CoA release at […] nm, crude extract. In kind it is biochemical. Particulars: 500 mM L-glutamate, 0.2 mM acetyl-CoA, 0.2 mM DTNB, 100 mM Tris-HCl pH 7.5, 25 C; wild-type C. glutamicum background with own NAGS activity.

In another experiment the target is T2, Cg3035 (Corynebacterium glutamicum, UniProt Q8NM40).
T2 construct: gene Cgl2740; complete ORF, untagged as far as told, overexpressed from pZ8-1 in C. glutamicum ATCC 13032 and its cg3035 deletion mutant; crude extract
The experiment is described as follows: DTNB assay of CoA release at […] nm, crude extract. In kind it is biochemical. The following applies: 500 mM L-glutamate, 0.2 mM acetyl-CoA, 0.2 mM DTNB, 100 mM Tris-HCl pH 7.5, 25 C; overexpressing strain against deletion mutant; no acetyl-CoA consumption without glutamate.

T2 sequence (Q8NM40 entry or part of it): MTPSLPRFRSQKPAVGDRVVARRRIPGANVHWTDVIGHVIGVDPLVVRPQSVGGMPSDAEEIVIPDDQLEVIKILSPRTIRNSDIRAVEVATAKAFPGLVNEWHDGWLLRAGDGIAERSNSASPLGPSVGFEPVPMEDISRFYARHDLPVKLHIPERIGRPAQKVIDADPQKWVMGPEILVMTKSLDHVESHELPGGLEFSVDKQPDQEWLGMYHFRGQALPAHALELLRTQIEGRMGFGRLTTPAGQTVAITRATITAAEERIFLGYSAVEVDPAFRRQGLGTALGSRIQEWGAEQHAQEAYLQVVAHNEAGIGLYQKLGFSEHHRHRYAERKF

Turning to `CC(=O)SCCNC(=O)CCNC(=O)[C@H](O)C(C)(C)COP(=O)(O)OP(=O)(O)OC[C@H]1O[C@@H](n2cnc3c(N)ncnc32)[C@H](O)[C@@H]1OP(=O)(O)O` [acetyl-CoA], the figures for the “DTNB assay of CoA release at 412 nm, crude extract” value at ArgA from E. coli and at Cg3035 were “ArgA from E. coli was found to confer additional NAGS activity” and “the function of Cg3035 to use acetyl-CoA for acetylation of glutamate was demonstrated”, respectively.
